Where a name gives a salt, the structure may show the parent alone.
Each compound was assayed against rat nNOS (Rattus norvegicus (Rat), UniProt P29476). Settings: Table 1; ratio of Ki values, bovine eNOS/rat nNOS.

Q: With `Cl.Cl.Nc1ccc2ccc(CNCCc3cccc(F)c3)cc2n1` [5 (Ex. 8), 7-[(3-Fluorophenethylamino)methyl]quinolin-2-amine Dihydrochloride] as the compound, how does the Selectivity n/e read?
A: The Selectivity n/e was 6.2.

Q: With `Cl.Cl.Nc1ccc2ccc(CCNCc3cccc(F)c3)cc2n1` [6 (Ex. 12), 7-[2-(3-Fluorobenzylamino)ethyl]quinolin-2-amine Dihydrochloride] as the compound, how does the Selectivity n/e read?
A: The Selectivity n/e was 30.

Q: How did the Selectivity n/e turn out when `Cl.Cl.Nc1ccc2ccc(CCNCCc3ccc(Cl)cc3)cc2n1` [16 (Ex. 18), 7-[(4-Chlorophenethylamino)ethyl]quinolin-2-amine Dihydrochloride] was run?
A: The Selectivity n/e was 47.

Q: Which Selectivity n/e does the source give for `Nc1ccc2ccc(CNCCCc3cccc(F)c3)cc2n1` [9 (Ex. 9), 7-{2-[3-(3-Fluorophenyl(propylamino)methyl]}quinolin-2-amine Dihydrochloride] here?
A: Its Selectivity n/e is 62.

Same assay, conditions: Table 1; ratio of Ki values, murine iNOS/rat nNOS

Q: How did the Selectivity n/i turn out when `Cl.Cl.Nc1ccc2ccc(CCNCCc3ccc(F)cc3)cc2n1` [14 (Ex. 16), 7-[(4-Fluorophenethylamino)ethyl]quinolin-2-amine Dihydrochloride] was run?
A: Its Selectivity n/i is 280.

Q: Which Selectivity n/i does the source give for `Cl.Cl.Nc1ccc2ccc(CCNCc3cccc(F)c3)cc2n1` [6 (Ex. 12), 7-[2-(3-Fluorobenzylamino)ethyl]quinolin-2-amine Dihydrochloride] here?
A: Its Selectivity n/i is 97.

Q: For `Cl.Cl.Nc1ccc2ccc(CCNCCc3ccc(Cl)cc3)cc2n1` [16 (Ex. 18), 7-[(4-Chlorophenethylamino)ethyl]quinolin-2-amine Dihydrochloride], which Selectivity n/i is on record?
A: The Selectivity n/i was 91.

Q: `Nc1ccc2ccc(CNCCCc3cccc(F)c3)cc2n1` [9 (Ex. 9), 7-{2-[3-(3-Fluorophenyl(propylamino)methyl]}quinolin-2-amine Dihydrochloride] was tested. Which Selectivity n/i did it give?
A: Its Selectivity n/i is 538.

Same assay, conditions: read-out: Ki nNOS; Table 1; purified rat nNOS; Ki calculated from IC50

Q: How did the Ki turn out when `Nc1ccc2cc(CCNCCCc3cccc(F)c3)ccc2n1` [13 (Ex. 30), 6-{2-[3-(3-Fluorophenyl(propylamino)ethyl]}quinolin-2-amine Dihydrochloride] was run?
A: Its Ki is 4.37 µM.
